Experimental data as given in patent US20120100990A1, “4 -AMINOPICOLINATES AND THEIR USE AS HERBICIDES” (SYNGENTA CROP PROTECTION LLC, priority 2009, published 2012).

Tests used:
Format in all cases: in vivo
[1] = tested on: Alopecurus myosuroides (ALOMY); assay: Pre-emergence biological efficacy, glasshouse pot test; conditions: 312 h, 1,000 g/ha, evaluated after 13 days, 100=total damage, 0=no damage, read-out: Percentage damage caused to weed species, pre-emergence, ALOMY
Method: (§1) Seeds of Alopecurus myosuroides (ALOMY), Setaria faberi (SETFA), Echinochloa crus-galli (ECHCG), Solanum nigrum (SOLNI), Amaranthus retroflexus (AMARE) and Ipomea hederaceae (IPOHE) were sown in standard soil in pots. After cultivation for one day under controlled conditions in a glasshouse (at 24/16° C., day/night; 14 hours light; 65% humidity), the plants were sprayed with an aqueous spray solution derived from the formulation of the technical active ingredient in acetone/water (50:50) solution containing 0.5% Tween 20 (polyoxyethylene sorbitan monolaurate, CAS RN 9005-64-5) to give a final dose of 1000 or 250 g/ha of test compound. The test plants were then grown under controlled conditions in the glasshouse (at 24/16° C., day/night; 14 hours light; 65% humidity) and watered twice daily. After 13 days the test was evaluated (100=total damage to plant; 0=no damage to plant).

[2] = tested on: Amaranthus retroflexus (AMARE); assay: as above; conditions: 312 h, 1,000 g/ha, evaluated after 13 days, 100=total damage, 0=no damage, read-out: Percentage damage caused to weed species, pre-emergence, AMARE
Method: as §1

[3] = tested on: Echinochloa crus-galli (ECHCG); assay: as above; conditions: 312 h, 1,000 g/ha, evaluated after 13 days, 100=total damage, 0=no damage, read-out: Percentage damage caused to weed species, pre-emergence, ECHCG
Method: as §1

[4] = tested on: Ipomea hederaceae (IPOHE); assay: as above; conditions: Ipomoea hederacea, 312 h, 1,000 g/ha, evaluated after 13 days, 100=total damage, 0=no damage, read-out: Percentage damage caused to weed species, pre-emergence, IPOHE
Method: as §1

[5] = tested on: Setaria faberi (SETFA); assay: as above; conditions: 312 h, 1,000 g/ha, evaluated after 13 days, 100=total damage, 0=no damage, read-out: Percentage damage caused to weed species, pre-emergence, SETFA
Method: as §1

[6] = tested on: Solanum nigrum (SOLNI); assay: as above; conditions: 312 h, 1,000 g/ha, evaluated after 13 days, 100=total damage, 0=no damage, read-out: Percentage damage caused to weed species, pre-emergence, SOLNI
Method: as §1

[7] = tested on: Alopecurus myosuroides (ALOMY); assay: Post-emergence biological efficacy, glasshouse pot test; conditions: 312 h, 1,000 g/ha, evaluated after 13 days, 100=total damage, 0=no damage, read-out: Percentage damage caused to weed species, post-emergence, ALOMY
Method: as §1, with “for 8 days” for “for one day”, “grown on” for “grown”, “in a” for “in the”

[8] = tested on: Amaranthus retroflexus (AMARE); assay: as above; conditions: 312 h, 1,000 g/ha, evaluated after 13 days, 100=total damage, 0=no damage, read-out: Percentage damage caused to weed species, post-emergence, AMARE
Method: as §1, with “for 8 days” for “for one day”, “grown on” for “grown”, “in a” for “in the”

[9] = tested on: Echinochloa crus-galli (ECHCG); assay: as above; conditions: 312 h, 1,000 g/ha, evaluated after 13 days, 100=total damage, 0=no damage, read-out: Percentage damage caused to weed species, post-emergence, ECHCG
Method: as §1, with “for 8 days” for “for one day”, “grown on” for “grown”, “in a” for “in the”

[10] = tested on: Ipomea hederaceae (IPOHE); assay: as above; conditions: Ipomoea hederacea, 312 h, 1,000 g/ha, evaluated after 13 days, 100=total damage, 0=no damage, read-out: Percentage damage caused to weed species, post-emergence, IPOHE
Method: as §1, with “for 8 days” for “for one day”, “grown on” for “grown”, “in a” for “in the”

[11] = tested on: Setaria faberi (SETFA); assay: as above; conditions: 312 h, 1,000 g/ha, evaluated after 13 days, 100=total damage, 0=no damage, read-out: Percentage damage caused to weed species, post-emergence, SETFA
Method: as §1, with “for 8 days” for “for one day”, “grown on” for “grown”, “in a” for “in the”

[12] = tested on: Solanum nigrum (SOLNI); assay: as above; conditions: 312 h, 1,000 g/ha, evaluated after 13 days, 100=total damage, 0=no damage, read-out: Percentage damage caused to weed species, post-emergence, SOLNI
Method: as §1, with “for 8 days” for “for one day”, “grown on” for “grown”, “in a” for “in the”

SMILES	pest or weed control at 1000 g/ha [1] [%]	pest or weed control at 1000 g/ha [2] [%]	pest or weed control at 1000 g/ha [3] [%]	pest or weed control at 1000 g/ha [4] [%]	pest or weed control at 1000 g/ha [5] [%]	pest or weed control at 1000 g/ha [6] [%]	pest or weed control at 1000 g/ha [7] [%]	pest or weed control at 1000 g/ha [8] [%]	pest or weed control at 1000 g/ha [9] [%]	pest or weed control at 1000 g/ha [10] [%]	pest or weed control at 1000 g/ha [11] [%]	pest or weed control at 1000 g/ha [12] [%]
COC(=O)c1nc(Cl)cc(NCC2CC2)c1Cl [Compound 1-2, 4-Cyclopropylmethyl-amino-3,6-dichloro-pyridine-2-carboxylic acid methyl ester]	80	100	90	100	90	100	90	100	70	80	90	90
C=Cc1c(NCC2CC2)cc(Cl)nc1C(=O)OC [Compound 1-12, 6-chloro-4-cyclopropylmethylamino-3-ethenyl-pyridine-2-carboxylic acid methyl ester]	80	100	90	90	90	100	70	100	80	70	90	90
COC(=O)c1nc(Cl)cc(NCc2ccccc2)c1Cl [Compound 2-2, 3,6-Dichloro-4-phenylmethyl-amino-pyridine-2-carboxylic acid methyl ester]	60	100	30	90	80	100	50	100	60	70	80	100
C=Cc1c(NCc2ccccc2)cc(Cl)nc1C(=O)OC [Compound 2-12, 6-Chloro-3-ethenyl-4-phenylmethyl-amino-pyridine-2-carboxylic acid methyl ester]	80	100	30	80	80	100	60	100	50	70	80	100
C=Cc1c(NCc2ccccc2Cl)cc(Cl)nc1C(=O)OC [Compound 3-12, 6-Chloro-4-[(2-chlorophenyl-methyl)-amino]-3-ethenyl-pyridine-2-carboxylic acid methyl ester]	20	100	0	50	10	90	0	100	20	40	10	90
